Key:
barnyardgrass [1] = test: Test A pre-/postemergence herbicide test; assay type: in vivo, Echinochloa crus-galli
Method in brief: (§1)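 Planted in loam–sand blend; treated the same day preemergence by directed soil spray, while separately grown plants at one- to two-leaf stage got postemergence spray. Compared visually with untreated controls after approximately 10 days; 100 means complete control.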

giant foxtail = test: Test A pre-/postemergence herbicide test; assay type: in vivo, Setaria faberii
Method in brief: as §1

corn = test: Test A pre-/postemergence herbicide test; assay type: in vivo, Zea mays; conditions: Postemergence
Method in brief: as §1

rice = test: Test B flooded paddy test; assay type: in vivo, Oryza sativa; conditions: 500 g ai/ha, Flood; scale of 0 to 100 where 0 is no effect and 100 is complete control
Method in brief: (§2)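 Plants were grown to the 2-leaf stage, then pots were flooded to 3 cm above the soil and compound was applied directly into the paddy water, with that depth held throughout. After 13 to 15 days in a greenhouse, injury was rated visually against untreated controls on a 0 to 100 scale (100 = complete control).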

sedge, umbrella = test: Test B flooded paddy test; assay type: in vivo, Cyperus difformis; conditions: 500 g ai/ha, Flood; scale of 0 to 100 where 0 is no effect and 100 is complete control
Method in brief: as §2

ducksalad = test: Test B flooded paddy test; assay type: in vivo, Heteranthera limosa; conditions: 500 g ai/ha, Flood; scale of 0 to 100 where 0 is no effect and 100 is complete control
Method in brief: as §2

barnyardgrass [2] = test: Test B flooded paddy test; assay type: in vivo, Echinochloa crus-galli; conditions: 500 g ai/ha, Flood; scale of 0 to 100 where 0 is no effect and 100 is complete control
Method in brief: as §2

blackgrass = test: Test C pre-/postemergence herbicide test; assay type: in vivo, Alopecurus myosuroides
Method in brief: (§3)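 Test compounds, formulated in a surfactant-containing non-phytotoxic solvent blend, are applied to seeded loam/sand soil (preemergence) and to young plants at the 1- to 4-leaf stage in peat-based medium (postemergence). Plants stay 13 to 15 days under greenhouse conditions, then are scored visually relative to controls, 0 = no effect, 100 = complete control.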

crabgrass, large = test: Test C pre-/postemergence herbicide test; assay type: in vivo, Digitaria sanguinalis
Method in brief: as §3

morningglory = test: Test C pre-/postemergence herbicide test; assay type: in vivo, Ipomoea coccinea
Method in brief: as §3

ragweed = test: Test C pre-/postemergence herbicide test; assay type: in vivo, Ambrosia elatior
Method in brief: as §3

soybean = test: Test C pre-/postemergence herbicide test; assay type: in vivo, Glycine max
Method in brief: as §3

barnyardgrass [3] = test: Test C pre-/postemergence herbicide test; assay type: in vivo, Echinochloa crus-galli
Method in brief: as §3

[4] = 125 g ai/ha, visual rating, 0 to 100 scale, 0 no effect, 100 complete control, approximately 10 days, preemergence
[5] = Postemergence, 125 g ai/ha, 0 to 100 scale, 0 is no effect, 100 is complete control
[6] = preemergence, 500 g ai/ha, 0 to 100 scale, 0 is no effect and 100 is complete control
[7] = 125 g ai/ha, 0 to 100 scale, 0 is no effect, 100 is complete control
[8] = Preemergence, 31 g ai/ha, scale 0 to 100, 0 is no effect and 100 is complete control
[9] = Preemergence, 62 g ai/ha, scale 0 to 100
[10] = Preemergence, 125 g ai/ha, scale 0 to 100 (0 no effect, 100 complete control)
[11] = Preemergence, 62 g ai/ha, scale 0 to 100 (0 no effect, 100 complete control)
[12] = Postemergence, 500 g ai/ha, 0 to 100 scale (0 no effect, 100 complete control)
[13] = Preemergence, 125 g ai/ha, 0 to 100 scale where 0 is no effect and 100 is complete control
[14] = Postemergence, 31 g ai/ha, scale 0 to 100 (0 no effect, 100 complete control)
[15] = Postemergence, 62 g ai/ha, scale 0 (no effect) to 100 (complete control)
[16] = Postemergence, 125 g ai/ha, scale 0 to 100 (0 no effect, 100 complete control)
[17] = Postemergence, 250 g ai/ha, scale 0 to 100 (0 no effect, 100 complete control)

Question: Which results are given for O=C1NCC(c2ccc(C(F)(F)F)cc2)C1C(=O)Nc1ccccc1Cl (stereo not shown) [Compound 233]?
Answer: Plant response rating, Barnyardgrass (barnyardgrass [1]; [4]): 80; Plant response rating, Barnyardgrass (barnyardgrass [1]; [5]): 70; Barnyardgrass plant response rating (0 to 100 scale, 0 is no effect, 100 is complete control) (barnyardgrass [1]; Postemergence, 500 g ai/ha): 90; Plant response rating, Barnyardgrass (barnyardgrass [1]; [6]): 90; Plant response rating, Foxtail, Giant (giant foxtail; [4]): 90; Plant response rating, Foxtail, Giant (giant foxtail; [5]): 90; Foxtail, Giant plant response rating (0 to 100 scale, 0 is no effect, 100 is complete control) (giant foxtail; Postemergence, 500 g ai/ha): 90; Plant response rating, Foxtail, Giant (giant foxtail; [6]): 90; Plant response rating, Corn (corn; [7]): 20; Corn plant response rating (0 to 100 scale, 0 is no effect, 100 is complete control) (corn; 500 g ai/ha): 20; Plant response rating, Rice (rice): 0; Plant response rating, Sedge, Umbrella (sedge, umbrella): 0; Plant response rating, Ducksalad (ducksalad): 100; Plant response rating, Barnyardgrass (barnyardgrass [2]): 60; Blackgrass plant response rating (blackgrass; [8]): 30; Plant response rating, Blackgrass (blackgrass; [9]): 45; Plant response rating, Blackgrass (blackgrass; [10]): 60; Plant response rating (scale of 0 to 100), Blackgrass (blackgrass; Preemergence, 250 g ai/ha): 90; Crabgrass, Large plant response rating (crabgrass, large; [8]): 90; Crabgrass, Large plant response rating (crabgrass, large; [11]): 90; Plant response rating, Crabgrass, Large (crabgrass, large; [10]): 90; Plant response rating (scale of 0 to 100), Crabgrass, Large (crabgrass, large; Preemergence, 250 g ai/ha): 90; Morningglory plant response rating (morningglory; [8]): 0; Morningglory plant response rating (morningglory; [11]): 0; Plant response rating, Morningglory (morningglory; [10]): 20; Plant response rating (scale of 0 to 100), Morningglory (morningglory; Preemergence, 250 g ai/ha): 20; Ragweed plant response rating (ragweed; [8]): 10; Ragweed plant response rating (ragweed; [11]): 40; Plant response rating, Ragweed (ragweed; [10]): 40; Plant response rating (scale of 0 to 100), Ragweed (ragweed; Preemergence, 250 g ai/ha): 85; Soybean plant response rating (soybean; [8]): 0; Soybean plant response rating (soybean; [11]): 0; Plant response rating, Soybean (soybean; [10]): 5; Plant response rating (scale of 0 to 100), Soybean (soybean; Preemergence, 250 g ai/ha): 0; Barnyardgrass plant response rating (barnyardgrass [3]; [8]): 80; Plant response rating, Barnyardgrass (barnyardgrass [3]; [9]): 75; Plant response rating, Barnyardgrass (barnyardgrass [3]; [10]): 85; Plant response rating (scale of 0 to 100; 0 is no effect, 100 is complete control), Barnyardgrass (barnyardgrass [3]; Preemergence, 250 g ai/ha): 90

Question: Which results are given for O=C1NCC(c2cc(F)cc(F)c2)C1C(=O)Nc1cccc(F)c1F (racemic) [Compound 279]?
Answer: Plant response rating, Barnyardgrass (barnyardgrass [1]; [5]): 80; Plant response rating, Barnyardgrass (barnyardgrass [1]; [12]): 90; Plant response rating, Barnyardgrass (barnyardgrass [1]; [13]): 80; Plant response rating, Barnyardgrass (barnyardgrass [1]; [6]): 90; Plant response rating, Foxtail, Giant (giant foxtail; [5]): 80; Plant response rating, Foxtail, Giant (giant foxtail; [12]): 90; Plant response rating, Foxtail, Giant (giant foxtail; [13]): 90; Plant response rating, Foxtail, Giant (giant foxtail; [6]): 90; Plant response rating, Corn (corn; [7]): 40; Plant response rating, Corn (corn; 500 g ai/ha, 0 to 100 scale (0 no effect, 100 complete control)): 70; Plant response rating, Rice (rice): 10; Plant response rating, Sedge, Umbrella (sedge, umbrella): 0; Plant response rating, Ducksalad (ducksalad): 100; Plant response rating, Barnyardgrass (barnyardgrass [2]): 75; Plant response rating, Blackgrass (blackgrass; [14]): 0; Plant response rating, Blackgrass (blackgrass; [15]): 0; Plant response rating, Blackgrass (blackgrass; [16]): 0; Plant response rating, Blackgrass (blackgrass; [17]): 0; Blackgrass plant response rating (blackgrass; [8]): 0; Blackgrass plant response rating (blackgrass; [11]): 0; Plant response rating, Blackgrass (blackgrass; [10]): 30; Plant response rating (scale of 0 to 100), Blackgrass (blackgrass; Preemergence, 250 g ai/ha): 85; Plant response rating, Crabgrass, Large (crabgrass, large; [14]): 25; Plant response rating, Crabgrass, Large (crabgrass, large; [15]): 65; Plant response rating, Crabgrass, Large (crabgrass, large; [16]): 70; Plant response rating, Crabgrass, Large (crabgrass, large; [17]): 80; Crabgrass, Large plant response rating (crabgrass, large; [8]): 95; Crabgrass, Large plant response rating (crabgrass, large; [11]): 95; Plant response rating, Crabgrass, Large (crabgrass, large; [10]): 98; Plant response rating (scale of 0 to 100), Crabgrass, Large (crabgrass, large; Preemergence, 250 g ai/ha): 100; Plant response rating, Morningglory (morningglory; [14]): 5; Plant response rating, Morningglory (morningglory; [15]): 60; Plant response rating, Morningglory (morningglory; [16]): 30; Plant response rating, Morningglory (morningglory; [17]): 25; Morningglory plant response rating (morningglory; [8]): 0; Morningglory plant response rating (morningglory; [11]): 0; Plant response rating, Morningglory (morningglory; [10]): 10; Plant response rating (scale of 0 to 100), Morningglory (morningglory; Preemergence, 250 g ai/ha): 10; Plant response rating, Ragweed (ragweed; [14]): 15; Plant response rating, Ragweed (ragweed; [15]): 20; Plant response rating, Ragweed (ragweed; [16]): 35; Plant response rating, Ragweed (ragweed; [17]): 35; Ragweed plant response rating (ragweed; [8]): 0; Ragweed plant response rating (ragweed; [11]): 0; Plant response rating, Ragweed (ragweed; [10]): 10; Plant response rating (scale of 0 to 100), Ragweed (ragweed; Preemergence, 250 g ai/ha): 65; Plant response rating, Soybean (soybean; [14]): 40; Plant response rating, Soybean (soybean; [15]): 10; Plant response rating, Soybean (soybean; [16]): 0; Plant response rating, Soybean (soybean; [17]): 10; Soybean plant response rating (soybean; [8]): 0; Soybean plant response rating (soybean; [11]): 0; Plant response rating, Soybean (soybean; [10]): 0; Plant response rating (scale of 0 to 100), Soybean (soybean; Preemergence, 250 g ai/ha): 10; Plant response rating, Barnyardgrass (barnyardgrass [3]; [14]): 15; Plant response rating, Barnyardgrass (barnyardgrass [3]; [15]): 55; Plant response rating, Barnyardgrass (barnyardgrass [3]; [16]): 85; Plant response rating, Barnyardgrass (barnyardgrass [3]; [17]): 85; Barnyardgrass plant response rating (barnyardgrass [3]; [8]): 80; Barnyardgrass plant response rating (barnyardgrass [3]; [11]): 95; Plant response rating, Barnyardgrass (barnyardgrass [3]; [10]): 95; Plant response rating (scale of 0 to 100; 0 is no effect, 100 is complete control), Barnyardgrass (barnyardgrass [3]; Preemergence, 250 g ai/ha): 98
